{"source": "patent US10597388B2", "about": "“Pyridazinone herbicides” (FMC CORPORATION, priority 2014, dated 2020)", "assay_in_all_cases": "Test D controlled growth environment herbicide test, pre- and postemergence", "assay_type_in_all_cases": "in vivo", "key": {"[1]": {"tested_on": "bluegrass (annual bluegrass, Poa annua)", "procedure,_shortened": "(§1)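 Rating is visual, 0–100 scale (100 = complete control), made against untreated plants 14–21 d after treatment in controlled growth conditions. Postemergence sprays went onto 1- to 4-leaf plants in peat medium; preemergence sprays onto silt loam after sowing; formulation included a surfactant.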"}, "[2]": {"tested_on": "field violet (Viola arvensis)", "procedure,_shortened": "as §1"}, "[3]": {"tested_on": "barley, winter (winter barley, Hordeum vulgare)", "procedure,_shortened": "as §1"}, "[4]": {"tested_on": "galium (catchweed bedstraw, Galium aparine)", "procedure,_shortened": "as §1"}, "[5]": {"tested_on": "chamomile (scentless chamomile, Matricaria inodora)", "procedure,_shortened": "as §1"}, "[6]": {"tested_on": "blackgrass (Alopecurus myosuroides)", "procedure,_shortened": "as §1"}, "[7]": {"tested_on": "foxtail, green (green foxtail, Setaria viridis)", "procedure,_shortened": "as §1"}, "[8]": {"tested_on": "lambsquarters (Chenopodium album)", "procedure,_shortened": "as §1"}, "[9]": {"tested_on": "bromegrass, downy (downy bromegrass, Bromus tectorum)", "procedure,_shortened": "as §1"}, "[10]": {"tested_on": "wheat, winter (winter wheat, Triticum aestivum)", "procedure,_shortened": "as §1"}, "[11]": {"tested_on": "chickweed (common chickweed, Stellaria media)", "procedure,_shortened": "as §1"}, "[12]": {"tested_on": "pigweed (Amaranthus retroflexus)", "procedure,_shortened": "as §1"}, "[13]": {"tested_on": "kochia (Kochia scoparia)", "procedure,_shortened": "as §1"}, "[14]": {"conditions": "Postemergence, 31 g ai/ha, scale 0 to 100 (0 no effect, 100 complete control)"}, "[15]": {"conditions": "Postemergence, 125 g ai/ha, visual rating on scale 0 (no effect) to 100 (complete control), 14 to 21 d"}, "[16]": {"conditions": "Postemergence, 250 g ai/ha, scale 0 to 100 (0 no effect, 100 complete control)"}, "[17]": {"conditions": "Preemergence, 62 g ai/ha, scale 0 to 100 (0 no effect, 100 complete control)"}, "[18]": {"conditions": "Preemergence, 125 g ai/ha, scale 0 to 100 (0 no effect, 100 complete control)"}, "[19]": {"conditions": "Preemergence, 250 g ai/ha, scale 0 to 100, 0 no effect, 100 complete control"}, "[20]": {"conditions": "postemergence, 62 g ai/ha, scale 0 to 100, 0 no effect, 100 complete control"}}, "data": [{"smiles": "Cc1nn(C)c(=O)c(-c2ccc(F)c3ccccc23)c1O", "note": "[Compound 41]", "values": [{"measurement": "Bluegrass plant response rating", "setting": "[1]; [14]", "result": 15}, {"measurement": "Plant response rating, Bluegrass", "setting": "[1]; [15]", "result": 25}, {"measurement": "Plant response rating, Bluegrass", "setting": "[1]; [16]", "result": 35}, {"measurement": "Plant response rating (scale of 0 to 100), Bluegrass", "setting": "[1]; Preemergence, 31 g ai/ha", "result": 70}, {"measurement": "Plant response rating, Bluegrass", "setting": "[1]; [17]", "result": 75}, {"measurement": "Plant response rating, Bluegrass", "setting": "[1]; [18]", "result": 80}, {"measurement": "Bluegrass plant response rating", "setting": "[1]; [19]", "result": 90}, {"measurement": "Plant response rating, Bluegrass", "setting": "[1]; [20]", "result": 30}, {"measurement": "Field Violet plant response rating", "setting": "[2]; [14]", "result": 100}, {"measurement": "Plant response rating, Field Violet", "setting": "[2]; [15]", "result": 90}, {"measurement": "Plant response rating, Field Violet", "setting": "[2]; [16]", "result": 100}, {"measurement": "Plant response rating (scale of 0 to 100), Field Violet", "setting": "[2]; Preemergence, 31 g ai/ha", "result": 95}, {"measurement": "Plant response rating, Field Violet", "setting": "[2]; [17]", "result": 90}, {"measurement": "Plant response rating, Field Violet", "setting": "[2]; [18]", "result": 100}, {"measurement": "Plant response rating, Field Violet", "setting": "[2]; [19]", "result": 100}, {"measurement": "Plant response rating, Field Violet", "setting": "[2]; [20]", "result": 90}, {"measurement": "Plant response rating, Barley, Winter", "setting": "[3]; [14]", "result": 0}, {"measurement": "Plant response rating, Barley, Winter", "setting": "[3]; [15]", "result": 5}, {"measurement": "Plant response rating, Barley, Winter", "setting": "[3]; [16]", "result": 35}, {"measurement": "Plant response rating (scale of 0 to 100), Barley, Winter", "setting": "[3]; Preemergence, 31 g ai/ha", "result": 0}, {"measurement": "Plant response rating, Barley, Winter", "setting": "[3]; [17]", "result": 20}, {"measurement": "Plant response rating, Barley, Winter", "setting": "[3]; [18]", "result": 25}, {"measurement": "Barley, Winter plant response rating", "setting": "[3]; [19]", "result": 30}, {"measurement": "Plant response rating, Barley, Winter", "setting": "[3]; [20]", "result": 5}, {"measurement": "Galium plant response rating", "setting": "[4]; [14]", "result": 100}, {"measurement": "Plant response rating, Galium", "setting": "[4]; [15]", "result": 100}, {"measurement": "Plant response rating, Galium", "setting": "[4]; [16]", "result": 100}, {"measurement": "Plant response rating (scale of 0 to 100), Galium", "setting": "[4]; Preemergence, 31 g ai/ha", "result": 75}, {"measurement": "Plant response rating, Galium", "setting": "[4]; [17]", "result": 85}, {"measurement": "Plant response rating, Galium", "setting": "[4]; [18]", "result": 95}, {"measurement": "Plant response rating, Galium", "setting": "[4]; [19]", "result": 100}, {"measurement": "Plant response rating, Galium", "setting": "[4]; [20]", "result": 100}, {"measurement": "Chamomile plant response rating", "setting": "[5]; [14]", "result": 75}, {"measurement": "Plant response rating, Chamomile", "setting": "[5]; [15]", "result": 80}, {"measurement": "Plant response rating, Chamomile", "setting": "[5]; [16]", "result": 100}, {"measurement": "Plant response rating, Chamomile", "setting": "[5]; [20]", "result": 75}, {"measurement": "Blackgrass plant response rating", "setting": "[6]; [14]", "result": 55}, {"measurement": "Plant response rating, Blackgrass", "setting": "[6]; [15]", "result": 70}, {"measurement": "Plant response rating, Blackgrass", "setting": "[6]; [16]", "result": 75}, {"measurement": "Plant response rating (scale of 0 to 100), Blackgrass", "setting": "[6]; Preemergence, 31 g ai/ha", "result": 70}, {"measurement": "Plant response rating, Blackgrass", "setting": "[6]; [17]", "result": 75}, {"measurement": "Plant response rating, Blackgrass", "setting": "[6]; [18]", "result": 80}, {"measurement": "Blackgrass plant response rating", "setting": "[6]; [19]", "result": 80}, {"measurement": "Plant response rating, Blackgrass", "setting": "[6]; [20]", "result": 65}, {"measurement": "Foxtail, Green plant response rating", "setting": "[7]; [14]", "result": 45}, {"measurement": "Plant response rating, Foxtail, Green", "setting": "[7]; [15]", "result": 50}, {"measurement": "Plant response rating, Foxtail, Green", "setting": "[7]; [16]", "result": 65}, {"measurement": "Plant response rating (scale of 0 to 100), Foxtail, Green", "setting": "[7]; Preemergence, 31 g ai/ha", "result": 45}, {"measurement": "Plant response rating, Foxtail, Green", "setting": "[7]; [17]", "result": 80}, {"measurement": "Plant response rating, Foxtail, Green", "setting": "[7]; [18]", "result": 100}, {"measurement": "Plant response rating, Foxtail, Green", "setting": "[7]; [19]", "result": 100}, {"measurement": "Plant response rating, Foxtail, Green", "setting": "[7]; [20]", "result": 55}, {"measurement": "Lambsquarters plant response rating", "setting": "[8]; [14]", "result": 70}, {"measurement": "Plant response rating, Lambsquarters", "setting": "[8]; [15]", "result": 75}, {"measurement": "Plant response rating, Lambsquarters", "setting": "[8]; [16]", "result": 85}, {"measurement": "Plant response rating (scale of 0 to 100), Lambsquarters", "setting": "[8]; Preemergence, 31 g ai/ha", "result": 25}, {"measurement": "Plant response rating, Lambsquarters", "setting": "[8]; [17]", "result": 100}, {"measurement": "Plant response rating, Lambsquarters", "setting": "[8]; [18]", "result": 100}, {"measurement": "Plant response rating, Lambsquarters", "setting": "[8]; [19]", "result": 100}, {"measurement": "Plant response rating, Lambsquarters", "setting": "[8]; [20]", "result": 65}, {"measurement": "Bromegrass, Downy plant response rating", "setting": "[9]; [14]", "result": 10}, {"measurement": "Plant response rating, Bromegrass, Downy", "setting": "[9]; [15]", "result": 35}, {"measurement": "Plant response rating, Bromegrass, Downy", "setting": "[9]; [16]", "result": 45}, {"measurement": "Plant response rating (scale of 0 to 100), Bromegrass, Downy", "setting": "[9]; Preemergence, 31 g ai/ha", "result": 50}, {"measurement": "Plant response rating, Bromegrass, Downy", "setting": "[9]; [17]", "result": 55}, {"measurement": "Plant response rating, Bromegrass, Downy", "setting": "[9]; [18]", "result": 70}, {"measurement": "Plant response rating, Bromegrass, Downy", "setting": "[9]; [19]", "result": 80}, {"measurement": "Plant response rating, Bromegrass, Downy", "setting": "[9]; [20]", "result": 20}, {"measurement": "Wheat, Winter plant response rating", "setting": "[10]; [14]", "result": 10}, {"measurement": "Plant response rating, Wheat, Winter", "setting": "[10]; [15]", "result": 25}, {"measurement": "Plant response rating, Wheat, Winter", "setting": "[10]; [16]", "result": 35}, {"measurement": "Plant response rating (scale of 0 to 100), Wheat, Winter", "setting": "[10]; Preemergence, 31 g ai/ha", "result": 10}, {"measurement": "Plant response rating, Wheat, Winter", "setting": "[10]; [17]", "result": 20}, {"measurement": "Plant response rating, Wheat, Winter", "setting": "[10]; [18]", "result": 45}, {"measurement": "Plant response rating, Wheat, Winter", "setting": "[10]; [19]", "result": 75}, {"measurement": "Plant response rating, Wheat, Winter", "setting": "[10]; [20]", "result": 20}, {"measurement": "Chickweed plant response rating", "setting": "[11]; [14]", "result": 98}, {"measurement": "Plant response rating, Chickweed", "setting": "[11]; [15]", "result": 95}, {"measurement": "Plant response rating, Chickweed", "setting": "[11]; [16]", "result": 100}, {"measurement": "Plant response rating (scale of 0 to 100), Chickweed", "setting": "[11]; Preemergence, 31 g ai/ha", "result": 90}, {"measurement": "Plant response rating, Chickweed", "setting": "[11]; [17]", "result": 95}, {"measurement": "Plant response rating, Chickweed", "setting": "[11]; [18]", "result": 95}, {"measurement": "Plant response rating, Chickweed", "setting": "[11]; [19]", "result": 95}, {"measurement": "Plant response rating, Chickweed", "setting": "[11]; [20]", "result": 98}, {"measurement": "Pigweed plant response rating", "setting": "[12]; [14]", "result": 75}, {"measurement": "Plant response rating, Pigweed", "setting": "[12]; [15]", "result": 80}, {"measurement": "Plant response rating, Pigweed", "setting": "[12]; [16]", "result": 85}, {"measurement": "Plant response rating (scale of 0 to 100), Pigweed", "setting": "[12]; Preemergence, 31 g ai/ha", "result": 25}, {"measurement": "Plant response rating, Pigweed", "setting": "[12]; [17]", "result": 75}, {"measurement": "Plant response rating, Pigweed", "setting": "[12]; [18]", "result": 100}, {"measurement": "Plant response rating, Pigweed", "setting": "[12]; [19]", "result": 100}, {"measurement": "Plant response rating, Pigweed", "setting": "[12]; [20]", "result": 80}, {"measurement": "Kochia plant response rating", "setting": "[13]; [14]", "result": 85}, {"measurement": "Plant response rating, Kochia", "setting": "[13]; [15]", "result": 85}, {"measurement": "Plant response rating, Kochia", "setting": "[13]; [16]", "result": 100}, {"measurement": "Plant response rating (scale of 0 to 100), Kochia", "setting": "[13]; Preemergence, 31 g ai/ha", "result": 80}, {"measurement": "Plant response rating, Kochia", "setting": "[13]; [17]", "result": 75}, {"measurement": "Plant response rating, Kochia", "setting": "[13]; [18]", "result": 80}, {"measurement": "Plant response rating, Kochia", "setting": "[13]; [19]", "result": 100}, {"measurement": "Plant response rating, Kochia", "setting": "[13]; [20]", "result": 95}]}]}
